# PubChem BioAssay AID1963865 (Molecular Pharmacology Branch, DTP, NCI, 2024)
# Tested on: KRAS PDC multicell spheroid viability
# Assay: Anticancer human tumor 825966-067-R-J1-PDC patient-derived colon carcinoma cell line growth inhibition [KRAS2]
# Conditions: for IC50: curve of first compound; for viability, T/C: stronger effect = lower value
# Summary of the method: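 Combination screen of spheroid viability in tumor-cell co-cultures with endothelial (HUVEC) and mesenchymal stem cell stroma. Each agent was tested in half-log dilutions, topping at clinical Cmax or at 10 microM without a known Cmax.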
# [1] = second compound 0.1 µM, first compound 0.0316 µM
# [2] = second compound 0.1 µM, first compound 0.1 µM
# [3] = second compound 0.1 µM, first compound 0.316 µM
# [4] = second compound 0.1 µM, first compound 1 µM
# [5] = second compound 0.1 µM, first compound 3.16 µM
# [6] = second compound 0.1 µM, first compound 10 µM
# [7] = second compound 0.316 µM, first compound 0.0316 µM
# [8] = second compound 0.316 µM, first compound 0.1 µM
# [9] = second compound 0.316 µM, first compound 0.316 µM
# [10] = second compound 0.316 µM, first compound 1 µM
# [11] = second compound 0.316 µM, first compound 3.16 µM
# [12] = second compound 0.316 µM, first compound 10 µM
# [13] = second compound 1 µM, first compound 0.0316 µM
# [14] = second compound 1 µM, first compound 0.1 µM
# [15] = second compound 1 µM, first compound 0.316 µM
# [16] = second compound 1 µM, first compound 1 µM
# [17] = second compound 1 µM, first compound 3.16 µM
# [18] = second compound 1 µM, first compound 10 µM
# [19] = second compound 3.16 µM, first compound 0.0316 µM
# [20] = second compound 3.16 µM, first compound 0.1 µM
# [21] = second compound 3.16 µM, first compound 0.316 µM
# [22] = second compound 3.16 µM, first compound 1 µM
# [23] = second compound 3.16 µM, first compound 3.16 µM
# [24] = second compound 3.16 µM, first compound 10 µM
# [25] = second compound 10 µM, first compound 0.0316 µM
# [26] = second compound 10 µM, first compound 0.1 µM
# [27] = second compound 10 µM, first compound 0.316 µM
# [28] = second compound 10 µM, first compound 1 µM
# [29] = second compound 10 µM, first compound 3.16 µM
# [30] = second compound 10 µM, first compound 10 µM
# [31] = second compound 0.1 µM, first compound 0.01 µM
# [32] = second compound 0.316 µM, first compound 0.01 µM
# [33] = second compound 1 µM, first compound 0.01 µM
# [34] = second compound 3.16 µM, first compound 0.01 µM
# [35] = second compound 10 µM, first compound 0.01 µM
# [36] = second compound 0.1 µM, first compound 0.00316 µM
# [37] = second compound 0.316 µM, first compound 0.00316 µM
# [38] = second compound 1 µM, first compound 0.00316 µM
# [39] = second compound 3.16 µM, first compound 0.00316 µM
# [40] = second compound 10 µM, first compound 0.00316 µM
# 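Also: spheroids exposed to compounds for 7 days.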
# 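For viability, T/C in this document: 100% = DMSO vehicle control viability.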
SMILES,IC50 (second compound 0.1 µM),IC50 (second compound 0.316 µM),IC50 (second compound 1 µM),IC50 (second compound 3.16 µM),IC50 (second compound 10 µM),"viability, T/C [1]","viability, T/C [2]","viability, T/C [3]","viability, T/C [4]","viability, T/C [7]","viability, T/C [8]","viability, T/C [9]","viability, T/C [10]","viability, T/C [13]","viability, T/C [14]","viability, T/C [15]","viability, T/C [19]","viability, T/C [20]","viability, T/C [25]","viability, T/C [26]",also measured
CC(C)NCC(C(=O)N1CCN(c2ncnc3c2C(C)CC3O)CC1)c1ccc(Cl)cc1 (stereo not given) + CC1OCC2(CCN(c3cnc(Sc4ccnc(N)c4Cl)c(N)n3)CC2)C1N,4.49 µM,4.13 µM,2.55 µM,1.42 µM,0.0358 µM,73.2%,97.8%,129%,87.9%,86.3%,121%,145%,122%,92.9%,102%,133%,102%,107%,53.1%,29.5%,"viability, T/C [5]: 67.5%; viability, T/C [6]: 11.6%; viability, T/C [11]: 60.6%; viability, T/C [12]: 14.5%; viability, T/C [16]: 112%; viability, T/C [17]: 36.2%; viability, T/C [18]: 12.1%; viability, T/C [21]: 137%; viability, T/C [22]: 67.7%; viability, T/C [23]: 13.4%; viability, T/C [24]: 5.28%; viability, T/C [27]: 21.9%; viability, T/C [28]: 6.39%; viability, T/C [29]: 4.52%; viability, T/C [30]: 4.31%"
CC1(C)CCC(CN2CCN(c3ccc(C(=O)NS(=O)(=O)c4ccc(NCC5CCOCC5)c([N+](=O)[O-])c4)c(Oc4cnc5[nH]ccc5c4)c3)CC2)=C(c2ccc(Cl)cc2)C1 + CC1OCC2(CCN(c3cnc(Sc4ccnc(N)c4Cl)c(N)n3)CC2)C1N,2.22 µM,2.23 µM,2.14 µM,2.36 µM,1.97 µM,103%,88.4%,116%,114%,102%,104%,119%,96.9%,99%,110%,119%,122%,126%,69%,78.2%,"viability, T/C [5]: 25.6%; viability, T/C [6]: 11.1%; viability, T/C [11]: 29.6%; viability, T/C [12]: 3.21%; viability, T/C [16]: 110%; viability, T/C [17]: 19.3%; viability, T/C [18]: 4.73%; viability, T/C [21]: 111%; viability, T/C [22]: 119%; viability, T/C [23]: 26.6%; viability, T/C [24]: 4.06%; viability, T/C [27]: 131%; viability, T/C [28]: 141%; viability, T/C [29]: 11.5%; viability, T/C [30]: 2%"
CC1COCCN1c1cc(-c2ccnn2C)c2ccnc(-c3ccn[nH]3)c2n1 (stereo not given) + CC1OCC2(CCN(c3cnc(Sc4ccnc(N)c4Cl)c(N)n3)CC2)C1N,2.86 µM,> 3.16 µM,3.16 µM,0.0793 µM,0.0172 µM,120%,78.5%,75.3%,60%,139%,57.9%,66.4%,60.2%,135%,57.4%,55.8%,118%,32.4%,29.6%,12.9%,"viability, T/C [31]: 135%; viability, T/C [5]: 46.6%; viability, T/C [32]: 125%; viability, T/C [11]: 59%; viability, T/C [33]: 128%; viability, T/C [16]: 51.3%; viability, T/C [17]: 48.5%; viability, T/C [34]: 134%; viability, T/C [21]: 29%; viability, T/C [22]: 32.9%; viability, T/C [23]: 36.3%; viability, T/C [35]: 68.1%; viability, T/C [27]: 11.3%; viability, T/C [28]: 12.6%; viability, T/C [29]: 18.3%"
CCN1CCN(Cc2ccc(Nc3ncc(F)c(-c4cc(F)c5nc(C)n(C(C)C)c5c4)n3)nc2)CC1 + CC1OCC2(CCN(c3cnc(Sc4ccnc(N)c4Cl)c(N)n3)CC2)C1N,> 1 µM,> 1 µM,> 1 µM,0.842 µM,0.0649 µM,102%,129%,143%,124%,96.7%,139%,135%,74.4%,112%,130%,164%,98.1%,117%,72.4%,36%,"viability, T/C [36]: 121%; viability, T/C [31]: 110%; viability, T/C [37]: 105%; viability, T/C [32]: 115%; viability, T/C [38]: 105%; viability, T/C [33]: 113%; viability, T/C [16]: 87.3%; viability, T/C [39]: 95.2%; viability, T/C [34]: 96.7%; viability, T/C [21]: 150%; viability, T/C [22]: 39.2%; viability, T/C [40]: 72%; viability, T/C [35]: 84.8%; viability, T/C [27]: 18.4%; viability, T/C [28]: 10.7%"
CCNC(=O)CC1N=C(c2ccc(Cl)cc2)c2cc(OC)ccc2-n2c(C)nnc21 (stereo not given) + CC1OCC2(CCN(c3cnc(Sc4ccnc(N)c4Cl)c(N)n3)CC2)C1N,> 10 µM,> 10 µM,> 10 µM,> 10 µM,> 10 µM,104%,107%,122%,82.7%,101%,123%,119%,90.3%,97.5%,139%,138%,97.6%,118%,85.2%,91.5%,"viability, T/C [5]: 89.9%; viability, T/C [6]: 84.9%; viability, T/C [11]: 91.2%; viability, T/C [12]: 80.1%; viability, T/C [16]: 108%; viability, T/C [17]: 107%; viability, T/C [18]: 89.6%; viability, T/C [21]: 137%; viability, T/C [22]: 103%; viability, T/C [23]: 84.2%; viability, T/C [24]: 71.3%; viability, T/C [27]: 93.5%; viability, T/C [28]: 87.6%; viability, T/C [29]: 67.6%; viability, T/C [30]: 71.8%"
Cn1ncnc1[C@H]1c2n[nH]c(=O)c3cc(F)cc(c23)N[C@@H]1c1ccc(F)cc1 + CC1OCC2(CCN(c3cnc(Sc4ccnc(N)c4Cl)c(N)n3)CC2)C1N,> 0.1 µM,> 0.1 µM,> 0.1 µM,> 0.1 µM,< 0.000316 µM,74.8%,64.7%,–,–,89.6%,69.7%,–,–,78.5%,79.6%,–,87.1%,85%,37.2%,18.1%,"viability, T/C (second compound 0.1 µM, first compound 0.000316 µM): 109%; viability, T/C (second compound 0.1 µM, first compound 0.001 µM): 82%; viability, T/C [36]: 85.6%; viability, T/C [31]: 71.5%; viability, T/C (second compound 0.316 µM, first compound 0.000316 µM): 110%; viability, T/C (second compound 0.316 µM, first compound 0.001 µM): 99.8%; viability, T/C [37]: 103%; viability, T/C [32]: 106%; viability, T/C (second compound 1 µM, first compound 0.000316 µM): 87%; viability, T/C (second compound 1 µM, first compound 0.001 µM): 109%; viability, T/C [38]: 80%; viability, T/C [33]: 104%; viability, T/C (second compound 3.16 µM, first compound 0.000316 µM): 93.3%; viability, T/C (second compound 3.16 µM, first compound 0.001 µM): 80.7%; viability, T/C [39]: 86.8%; viability, T/C [34]: 80%; viability, T/C (second compound 10 µM, first compound 0.000316 µM): 55.1%; viability, T/C (second compound 10 µM, first compound 0.001 µM): 18.3%; viability, T/C [40]: 31.5%; viability, T/C [35]: 43.9%"
